Test results as given in US20070270521A1, “Transition metal compound, polymerization-initiator system comprising the same, and process for producing polymer” (Sumitomo Chemical Company, Limited, priority 2006, published 2007).

What was measured:
Format in all cases: physicochemical
[1] = Saturated solubility of the transition metal compound in a solvent at 23° C.; details: amount dissolved in 10 mL of saturated solution (Note-1)
[2] = Polymer dipped in heptane (transfer of the transition metal compound to heptane); details: poly(butyl acrylate) made at 60° C. in toluene, containing the transition metal compound
Description: Its molecular weight distribution (Mw/Mn) of 3.2 was a single peak distribution. When dipping said polymer in heptane, the transition metal compound contained in said polymer was transferred to heptane, and said polymer was decolorized from red to very pale yellow.
Its molecular weight distribution (Mw/Mn) of 3.9 was a single peak distribution. When dipping said polymer in heptane, the transition metal compound contained in said polymer was hardly transferred to heptane, and said polymer remained red and was not decolorized.

[3] = Color change of the reaction mixture before and after polymerization (stability during polymerization); details: methyl acrylate/ethylene copolymerization in toluene, 150° C., 4 MPa
Description: A 400 mL stainless-steel autoclave was dried sufficiently, and a gas in the autoclave was displaced with a nitrogen gas. There was put in the autoclave, at ordinary temperature and atmospheric pressure, 1.61 g of [dodecyl(tetramethyl)cyclopentadienyl]iron carbonyl dimer (transition metal compound) obtained in Reference Example 2, and then, 18 mL of methyl acrylate manufactured by Tokyo Chemical Industry Co., Ltd. and 18 mL of purified toluene as a polymerization solvent were put therein using a syringe. After heating the mixture up to 150° C., ethylene (olefin) was pressed into the autoclave up to its pressure of 4.0 MPa. Finally, 2.0 mL of a toluene solution of 2-iodobutane (manufactured by Tokyo Chemical Industry Co., Ltd.) having a concentration of 1.0 mol/L was put therein, thereby copolymerizing methyl acrylate and ethylene at 150° C. for 10 minutes. The copolymerization reaction mixture was subjected to distillation under reduced pressure to distil away the remaining monomer (methyl acrylate) and the solvent (toluene). The resultant solid was dried for three hours in a vacuum dryer (80° C.), thereby obtaining 8.7 g of a random copolymer of methyl acrylate and ethylene. Both the original mixture before copolymerization and the copolymerization reaction mixture were red. […]

Row | Compound | Saturated solubility ([1]; hexane) [mmol] | Saturated solubility ([1]; toluene) [mmol] | Polymer dipped in heptane [2] | Color change of the reaction mixture before and after polymerization [3]
1 | (cyclopentadienyl)iron carbonyl dimer | 2.4 | 167.3 |  | 
2 | [dodecyl(tetramethyl)cyclopentadienyl]iron carbonyl dimer | 131.4 |  | decolorized | non-changed
3 | [octyl(tetramethyl)cyclopentadienyl]iron carbonyl dimer | 96.8 |  |  | 
4 | Cc1c(C)c(C)[c-](C)c1C.Cc1c(C)c(C)[c-](C)c1C.[C-]#[O+].[C-]#[O+].[C-]#[O+].[C-]#[O+].[Fe+][Fe+] [[(pentamethyl)cyclopentadienyl]iron carbonyl dimer] | 0.8 | 19.3 |  | 
